According to US8846710B2, “Method of preferentially inducing the biosynthesis of interferon” (3M Innovative Properties Company, priority 2005, dated 2014):

How the values were obtained:
interferon (α) (IFN-α) = experiment: Cytokine induction in human cells: IFN-α secreted by PBMC into culture media (ELISA); format: cell-based; set-up: key to Maximal Response (pg/mL) IFN: If any negative values result from background subtraction, the reading is reported as “*”, and is noted as not reliably detectable; conditions: for Maximal Response IFN / Minimum Effective Concentration IFN / minimal effective concentration: human PBMC; for Maximal Response IFN / Minimum Effective Concentration IFN: median where tested in more than one experiment; for Maximal Response (pg/mL) IFN: maximal response in dose response curve, median; for minimal effective concentration: lowest tested concentration inducing IFN-α over usually 20 pg/mL, median where more than one experiment, read-out: Minimum Effective Concentration (μM) IFN
How it was run: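 IFN-α secreted by density-gradient-isolated PBMC (final 2×10^6 cells/mL) was quantified by ELISA after 18–24 h compound exposure at 37 °C, typically 30-0.014 μM in 3-fold steps with ≤1% DMSO. Readings corrected for background and reference-compound variability; lowest concentration above usually 20 pg/mL reported, plus maximal response (pg/mL).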

[1] = tested on: tumor necrosis factor (α) (TNF-α); experiment: Cytokine induction in human cells: TNF-α secreted by PBMC into culture media (ORIGEN M-Series immunoassay); format: cell-based; set-up: key to Maximal Response (pg/mL) TNF / Maximal Response TNF: If any negative values result from background subtraction, the reading is reported as “*”, and is noted as not reliably detectable; conditions: for Minimum Effective Concentration TNF / Maximal Response TNF / minimal effective concentration: human PBMC; for Minimum Effective Concentration TNF: median where tested in more than one experiment; for Maximal Response TNF / Maximal Response (pg/mL) TNF: median; for Maximal Response (pg/mL) TNF: maximal response in dose response curve; for minimal effective concentration: lowest tested concentration inducing TNF-α over usually 40 pg/mL, median where more than one experiment, read-out: Minimum Effective Concentration (μM) TNF
How it was run: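 Secreted TNF-α (pg/mL) was quantified by ORIGEN M-Series immunoassay after 18 to 24 hours culture at 37° C of human PBMC (2×10^6 cells/mL final) with test compound (usually 30-0.014 μM, 3-fold series, DMSO ≤1%). Values were corrected for DMSO or experimental background and a reference-compound ratio, giving a minimum effective concentration.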

[2] = Table 11, * = TNF below experimental background of 40 pg/mL
[3] = Table 7, background-subtracted, reference-adjusted
[4] = Table 10, * = below experimental background level
[5] = Table 12, * = below the experimental background of 40 pg/mL

| SMILES | Maximal Response IFN (interferon (α) (IFN-α); Table 11) [pg/mL] | Minimum Effective Concentration IFN (interferon (α) (IFN-α); Table 11) [µM] | Minimum Effective Concentration TNF ([1]; Table 11) [µM] | Maximal Response TNF [1, 2] | further results |
| --- | --- | --- | --- | --- | --- |
| CS(=O)(=O)CCCCCn1c(CCO)nc2c(N)nc3ccccc3c21 [Example 125] | 8361 | 0.37 | >30 | * | – |
| CC(C)(Cn1c(CO)nc2c(N)nc3ccccc3c21)NS(C)(=O)=O [Example 7, N-[2-(4-Amino-2-hydroxymethyl-1H-imidazo[4,5-c]quinolin-1-yl)-1,1-dimethylethyl]methanesulfonamide] | 1670 | – | – | 154 pg/mL | Maximal Response (pg/mL) IFN (interferon (α) (IFN-α); [3]): 2250 pg/mL; Maximal Response (pg/mL) TNF [1, 3]: 121 pg/mL |
| Cc1nc2c(N)nc3ccccc3c2n1CCCCNC(=O)N1CCOCC1 [Analog 53] | 1538 | 0.12 | 10 | 1400 pg/mL | – |
| CC(C)(CNC(=O)c1ccccc1)Cn1c(CCO)nc2c(N)nc3ccccc3c21 [Example 124] | 3980 | 0.12 | 3.33 | 1446 pg/mL | – |
| Nc1nc2cc(-c3ccncc3)ccc2c2c1nc(CCO)n2CCCN1CCCC1=O [Example 161] | – | – | – | – | minimal effective concentration (interferon (α) (IFN-α); Table 10): >30 µM; Maximal Response (pg/mL) IFN (interferon (α) (IFN-α); [4]): *; minimal effective concentration ([1]; Table 10): >30 µM; Maximal Response (pg/mL) TNF [1, 4]: * |
| CC(C)(CNS(C)(=O)=O)Cn1c(CCO)nc2c(N)nc3ccccc3c21 [Example 131] | 8361 | 0.37 | >30 | * | – |
| CCOCc1nc2c(N)nc3cc(-c4cccc(O)c4)ccc3c2n1CC(C)(C)O [Analog 43] | – | – | – | – | minimal effective concentration (interferon (α) (IFN-α); Table 10): 0.04 µM; Maximal Response (pg/mL) IFN (interferon (α) (IFN-α); [4]): 740 pg/mL; minimal effective concentration ([1]; Table 10): 0.04 µM; Maximal Response (pg/mL) TNF [1, 4]: 3955 pg/mL |
| CCOCc1nc2c(N)nc3ccccc3c2n1CCCNC(=O)N1CCOCC1 [Analog 88] | 6670 | 0.12 | 1.11 | 1379 pg/mL | – |
| COCCc1nc2c(N)nc3ccccc3c2n1CCNC(=O)CC(C)C [Analog 106] | 1204 | 0.12 | 3.33 | 5694 pg/mL | – |
| CCCc1nc2c(N)nc3ccccc3c2n1CCCCNC(=O)N1CCOCC1 [Analog 55] | 11255 | 0.12 | 1.11 | 1298 pg/mL | – |
| Cc1nc2c(N)nc3cccnc3c2n1CC(C)(C)F [Analog 131, 1-(2-fluoro-2-methylpropyl)-2-methyl-1H-imidazo[4,5-c][1,5]naphthyridin-4-amine] | – | – | – | – | Maximal Response IFN (interferon (α) (IFN-α); Table 12): 2120 pg/mL; Maximal Response TNF [1, 5]: 1679 pg/mL |
| COCCc1nc2c(N)nc3cc(-c4ccncc4)ccc3c2n1CCCN1CCCC1=O [Analog 40] | – | – | – | – | minimal effective concentration (interferon (α) (IFN-α); Table 10): 0.37 µM; Maximal Response (pg/mL) IFN (interferon (α) (IFN-α); [4]): 1179 pg/mL; minimal effective concentration ([1]; Table 10): 3.33 µM; Maximal Response (pg/mL) TNF [1, 4]: 943 pg/mL |
| CCCC(=O)NCCCCn1c(COCC)nc2c(N)nc3cc(-c4cccnc4)ccc3c21 [Analog 31] | – | – | – | – | minimal effective concentration (interferon (α) (IFN-α); Table 10): 0.12 µM; Maximal Response (pg/mL) IFN (interferon (α) (IFN-α); [4]): 965 pg/mL; minimal effective concentration ([1]; Table 10): 1.11 µM; Maximal Response (pg/mL) TNF [1, 4]: 991 pg/mL |
| NCCCCn1c(CCO)nc2c(N)nc3ccccc3c21 [Example 114] | 23 | 30 | >30 | * | – |
| Nc1nc2ccccc2c2c1nc(CCO)n2CCCCNC(=O)c1cnc2ccccc2n1 [Example 117] | 5520 | 0.37 | 3.33 | 1938 pg/mL | – |
| CS(=O)(=O)NCCCCCCCCn1c(CCO)nc2c(N)nc3ccccc3c21 [Example 119] | 8361 | 0.04 | 3.33 | 693 pg/mL | – |
| Cc1nc2c(N)nc3ccccc3c2n1CCCNS(C)(=O)=O [Aanalog 58] | 2778 | 1.11 | 30 | * | – |

| SMILES | Maximal Response IFN (interferon (α) (IFN-α); Table 11) [pg/mL] | Minimum Effective Concentration IFN (interferon (α) (IFN-α); Table 11) [µM] | Minimum Effective Concentration TNF ([1]; Table 11) [µM] | Maximal Response TNF [1, 2] | further results |
| --- | --- | --- | --- | --- | --- |
| CN(CCOCCn1c(CCO)nc2c(N)nc3ccccc3c21)S(C)(=O)=O [Example 133] | 8361 | 0.37 | >30 | * | – |
| Cc1nc2c(N)nc3ccccc3c2n1CCCCNS(C)(=O)=O [Analog 48] | 7293 | 0.12 | 10 | 526 pg/mL | – |
| CCCc1nc2c(N)nc3ccccc3c2n1CCCCNS(C)(=O)=O [Analog 50] | 2184 | 0.12 | 1.11 | 850 pg/mL | – |
| COCCc1nc2c(N)nc3ccccc3c2n1CC(C)(C)NS(C)(=O)=O [Analog 5, N-{2-[4-Amino-2-(2-methoxyethyl)-1H-imidazo[4,5-c]quinolin-1-yl]-1,1-dimethylethyl}methanesulfonamide] | 1308 | – | – | 13908 pg/mL | Maximal Response (pg/mL) IFN (interferon (α) (IFN-α); [3]): 825 pg/mL; Maximal Response (pg/mL) TNF [1, 3]: 12518 pg/mL |
| CCOCc1nc2c(N)nc3cccnc3c2n1CC(C)(C)NS(C)(=O)=O [Analog 130, N-[2-(4-amino-2-ethoxoxymethyl-1H-imidazo[4,5-c][1,5]naphthyridin-1-yl)-1,1-dimethylethyl]methanesulfonamide] | – | – | – | – | Minimum Effective Concentration IFN (interferon (α) (IFN-α); Table 12): 0.04 µM; Minimum Effective Concentration TNF ([1]; Table 12): 0.37 µM |
| CC(C)NC(=O)NCCCn1c(CCO)nc2c(N)nc3ccccc3c21 [Example 99] | 21829 | 0.37 | >30 | * | – |
| COCCc1nc2c(N)nc3ccccc3c2n1CC(C)(C)CN [Analog 100] | 571 | 0.014 | 0.04 | 17626 pg/mL | – |
| COCCc1nc2c(N)nc3ccccc3c2n1CCCN [Analog 86] | 3433 | 0.04 | 1.11 | 1674 pg/mL | – |
| CCOCc1nc2c(N)nc3cc(-c4cccc(C)c4)ccc3c2n1CC(C)(C)O [Analog 41] | – | – | – | – | minimal effective concentration (interferon (α) (IFN-α); Table 10): 0.014 µM; Maximal Response (pg/mL) IFN (interferon (α) (IFN-α); [4]): 541 pg/mL; minimal effective concentration ([1]; Table 10): 0.12 µM; Maximal Response (pg/mL) TNF [1, 4]: 10184 pg/mL |
| CN(CCOCCn1c(CCO)nc2c(N)nc3ccccc3c21)C(=O)c1ccccc1 [Example 134] | 8361 | 3.33 | 30 | 315 pg/mL | – |
| Cc1nc2c(N)nc3ccccc3c2n1CCCNC(=O)N1CCOCC1 [Analog 87] | 4843 | 0.37 | 30 | 463 pg/mL | – |
| COCOCc1nc2c(N)nc3ccccc3c2n1CC(C)(C)CNC(=O)c1ccccc1 [Analog 95] | 832 | 0.04 | 0.37 | 1820 pg/mL | – |
| CCOCc1nc2c(N)nc3cc(-c4cncc(CO)c4)ccc3c2n1CC1CCN(C(=O)C(C)C)CC1 [Analog 44] | – | – | – | – | minimal effective concentration (interferon (α) (IFN-α); Table 10): 0.04 µM; Maximal Response (pg/mL) IFN (interferon (α) (IFN-α); [4]): 1382 pg/mL; minimal effective concentration ([1]; Table 10): 1.11 µM; Maximal Response (pg/mL) TNF [1, 4]: 3128 pg/mL |
| CS(=O)(=O)NCCCCn1c(CCO)nc2c(N)nc3cccnc3c21 [Example 145, N-{4-{4-Amino-2-(2-hydroxyethyl)-1H-imidazo[4,5-c][1,5]naphthyridin-1-yl]butyl}methanesulfonamide] | – | – | – | – | Maximal Response IFN (interferon (α) (IFN-α); Table 12): 3008 pg/mL; Maximal Response TNF [1, 5]: 7 pg/mL |
| Nc1nc2ccccc2c2c1nc(CCO)n2CCCCNC(=O)c1nccc2ccccc12 [Example 111] | 7753 | 0.12 | 1.11 | 983 pg/mL | – |
| CCCNC(=O)NCCCCn1c(CO)nc2c(N)nc3cc(-c4cccnc4)ccc3c21 [Example 195] | – | – | – | – | Maximal Response (pg/mL) IFN (interferon (α) (IFN-α); [4]): 5089 pg/mL; Maximal Response (pg/mL) TNF [1, 4]: 81 pg/mL |
| CCCc1nc2c(N)nc3ccccc3c2n1CCCCCS(C)(=O)=O [Analog 75] | 828 | 0.12 | 1.11 | 848 pg/mL | – |
